The values below come from ChEMBL document CHEMBL1275357, “Inhibition of Helicobacter pylori aminoacyl-tRNA amidotransferase by chloramphenicol analogs” (Bioorg Med Chem, 2010).

The term Ki denotes a dissociation constant, usually derived from enzyme kinetics or from competition with a known ligand.

A short description of the experiment: Competitive inhibition of Helicobacter pylori aminoacyl-tRNA […] GatCAB.
For the molecule `CS(=O)(=O)CC[C@H](N)C(=O)N[C@H](CO)[C@H](O)c1ccc([N+](=O)[O-])cc1`, the Ki turned out to be 27 µM.
In the case of `CS(=O)(=O)CC[C@H](N)C(=O)N[C@H](CO)[C@H](O)c1ccc(S(C)(=O)=O)cc1` it was 120 µM; in that of `CS(=O)(=O)CC[C@H](N)C(=O)N[C@H](CO)[C@H](O)c1ccccc1`, 400 µM.
In the case of `CN(C)c1ncnc2c1ncn2[C@@H]1O[C@H](CO)[C@@H](NC(=O)[C@@H](N)CCS(C)(=O)=O)[C@H]1O` it was 4 µM; in that of `CS(=O)(=O)CC[C@H](N)C(=O)N[C@@H](CO)[C@H](O)c1ccc([N+](=O)[O-])cc1`, 370 µM.
For `CS(=O)(=O)CC[C@H](N)C(=O)N[C@@H](CO)[C@@H](O)c1ccc([N+](=O)[O-])cc1`, the Ki stood at 160 µM.
In the case of `CS(=O)(=O)CC[C@H](N)C(=O)N[C@H](CO)[C@@H](O)c1ccc([N+](=O)[O-])cc1` it was 2800 µM; in that of `O=C(N[C@H](CO)[C@H](O)c1ccc([N+](=O)[O-])cc1)C(Cl)Cl` [CHLORAMPHENICOL], 1850 µM.
